Assays:
monocytes = assay: Monocyte membrane integrity (LDH release); format: cell-based, human; details: higher concentrations (>1 μM)
Protocol: To measure mitochondrial dehydrogenase activity, 3-(4,5-dimethylthiazol-2-yl)-2,5-diphenyltetrazolium bromide (MTT) (20 μL, 5 mg/mL, Sigma-Aldrich) was added to PBMC. After 4 h in the darkness, the formed formazan product was solubilized (10% SDS in 20 mM HCl) and the absorbance was read at 570 nm using a Multiskan Spectrum microplate reader (Thermo Fisher Scientific).[81]
LDH release was measured in monocytes using a CytoTox 96 nonradioactive cytotoxicity assay (Promega, Madison, WI) according to the manufacturer’s instruction using Triton X-100 (0.8%) as the maximum LDH release control.

[1] = test system: reconstructed human epidermis (RHE); assay: Experimental atopic dermatitis in reconstructed human epidermis (RHE); format: cell-based; details: RHE
Protocol: Compound 27a was evaluated in an inflammatory model of RHE by Synelvia S.A.S. (Labège, France) according to the company’s protocol.[88] In brief, primary human keratinocytes were used to generate RHE on polycarbonate filters as described.[88] RHE was allowed to acclimate for 6 days (5% CO2, 37 °C) prior to incubation with 27a (5, 10, 25 μM), dexamethasone (1 μM), or vehicle (0.05% DMSO), and a proinflammatory cytokine cocktail for 4 days at 5% CO2 and 37 °C. The culture medium including compounds and cytokines was changed on days 6, 8, and 10. Each culture condition was repeated three times. Acute cytotoxicity of 27a was excluded at the concentrations studied within 24 h by measuring the mitochondrial dehydrogenase activity (MTT assay).
Morphological changes (i.e., spongiosis and the formation of keratohyalin granules) were evaluated for sections of paraffin-embedded RHEs after hematoxylin-eosin staining.[89] The permeability of the skin barrier was estimated from the transepidermal water loss at the RHE surface.[90] The surface pH was determined with a pH electrode as reported.[89] The permeability of the stratum corneum was addressed by applying Lucifer yellow onto the RHE surface and inspecting the penetration by fluorescence microscopy.[88] TSLP and IL-8 levels were analyzed by ELISA (according to the specifications of Synelvia S.A.S.) in the culture medium on day 2 and day 4 after addition of cytokines, respectively.

ovine COX-1 = target: T1, ovine COX-1 (Ovis aries, UniProt P05979); assay: Isolated COX-1 activity; format: biochemical
T1 construct: purchased Cayman Chemicals
Protocol: Purified ovine COX-1 (Cayman Chemicals; 50 units) or human recombinant COX-2 (Cayman Chemicals; 20 units) was dissolved in 100 mM Tris buffer pH 8, 5 mM glutathione, 5 μM hemoglobin, and 100 μM EDTA. COX isoenzymes were preincubated with the vehicle (DMSO) or 27a for 5 min at 4 °C and 1 min at 37 °C. Addition of arachidonic acid (COX-1: 5 μM; COX-2: 2 μM) initiated the formation of COX-derived 12(S)-hydroxy-5-cis-8,10-trans-heptadecatrienoic acid (12-HHT), which was extracted and analyzed by RP-HPLC according to 5-LOX products.

[2] = Concentrations of compound in plasma and lung in the asthma model; format: in vivo, mice; details: 10 mg/kg p.o. on days 0 and 7
Protocol: LCMs, 27a, and 27a metabolites were extracted from PMNL, medium of the liver-on-chip, murine plasma, peritoneal exudate, or homogenized murine tissue as described.[6] In brief, PBS pH 7.4, methanol, chloroform, and saline (final ratio: 14:34:35:17) were successively added together with 13d (9 pmol) as the internal standard. The organic layer was evaporated, and the extracted LCMs were dissolved in methanol.
LCMs, 27a, and 27a metabolites were separated at a flow rate of 0.8 mL/min and a column temperature of 45 °C, with acetonitrile/H2O (10:90) as mobile phase A and acetonitrile as mobile phase B, both acidified with 0.07% formic acid. […] Signal intensities were normalized to the internal standard 13d, and concentrations were calculated using external calibration curves as specified in Table S3.
BALB/c mice received 27a (p.o.) or vehicle (0.5% carboxymethylcellulose in 10% Tween 20; 0.5 mL) on days 0 and 7, 1 h (p.o) before being sensitized to ovalbumin (100 μg adsorbed to 3.3 mg of aluminum hydroxide gel, s.c., Sigma-Aldrich). […] To assess bronchial reactivity, the cumulative response to carbachol (0.001 to 3.16 μM) was measured. Bronchial relaxation was determined from the cumulative response of precontracted bronchial tissues to salbutamol. Compound 27a, LTB4, and LTB4 isomers were analyzed in plasma and lung homogenates by UPLC-MS/MS. […]

12-LOX = target: T2, 12-LOX (Homo sapiens, UniProt P18054); assay: 12-LOX product formation in activated PMNL; format: cell-based
T2 construct: endogenous in cells; host or cells: primary human PMNL
Protocol: Freshly isolated PMNL (5 × 10^6) suspended in PBS pH 7.4 with 1 mg/mL glucose or freshly withdrawn human whole blood were preincubated with the test compounds for 10 min (or as indicated) at 37 °C. […] The reaction was stopped with an equal volume of methanol.

PMNL = assay: Intracellular uptake by PMNL; format: cell-based, human; details: 150 nM for 20 min
Protocol: Cells were centrifuged (1200g, 5 min, 4 °C) and washed thrice with PBS pH 7.4 with 0.1% fatty-acid-free BSA (Sigma-Aldrich). Compounds were extracted and analyzed by UPLC-MS/MS as described below for LCMs and derivatives. The intracellular concentrations of 27a and 12a were calculated assuming a spherical cell shape with a diameter of 13 μm (as measured using a Vi-CELL Series Cell Counter, Beckman Coulter, Krefeld, Germany) and an equal intracellular distribution. 13d (9 pmol) was used as the internal standard.

T2 sequence (P18054 whole entry): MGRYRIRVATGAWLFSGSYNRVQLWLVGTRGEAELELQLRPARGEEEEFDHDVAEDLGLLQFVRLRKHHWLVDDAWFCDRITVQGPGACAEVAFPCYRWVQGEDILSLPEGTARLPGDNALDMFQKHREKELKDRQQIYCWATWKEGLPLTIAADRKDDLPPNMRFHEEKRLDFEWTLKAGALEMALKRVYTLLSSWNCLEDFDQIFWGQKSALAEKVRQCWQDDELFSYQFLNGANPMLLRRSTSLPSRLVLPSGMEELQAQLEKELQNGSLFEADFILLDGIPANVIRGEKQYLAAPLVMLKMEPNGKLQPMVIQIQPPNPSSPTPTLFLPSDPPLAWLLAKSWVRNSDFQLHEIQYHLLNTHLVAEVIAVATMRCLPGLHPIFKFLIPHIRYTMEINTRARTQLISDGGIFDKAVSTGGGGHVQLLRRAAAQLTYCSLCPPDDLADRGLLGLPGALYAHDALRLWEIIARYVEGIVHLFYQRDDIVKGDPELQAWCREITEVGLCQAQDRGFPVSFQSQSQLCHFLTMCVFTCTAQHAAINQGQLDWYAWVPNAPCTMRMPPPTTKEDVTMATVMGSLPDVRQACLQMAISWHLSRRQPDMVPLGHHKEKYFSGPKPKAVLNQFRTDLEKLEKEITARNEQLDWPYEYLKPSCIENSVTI
T1 sequence (P05979 25-600): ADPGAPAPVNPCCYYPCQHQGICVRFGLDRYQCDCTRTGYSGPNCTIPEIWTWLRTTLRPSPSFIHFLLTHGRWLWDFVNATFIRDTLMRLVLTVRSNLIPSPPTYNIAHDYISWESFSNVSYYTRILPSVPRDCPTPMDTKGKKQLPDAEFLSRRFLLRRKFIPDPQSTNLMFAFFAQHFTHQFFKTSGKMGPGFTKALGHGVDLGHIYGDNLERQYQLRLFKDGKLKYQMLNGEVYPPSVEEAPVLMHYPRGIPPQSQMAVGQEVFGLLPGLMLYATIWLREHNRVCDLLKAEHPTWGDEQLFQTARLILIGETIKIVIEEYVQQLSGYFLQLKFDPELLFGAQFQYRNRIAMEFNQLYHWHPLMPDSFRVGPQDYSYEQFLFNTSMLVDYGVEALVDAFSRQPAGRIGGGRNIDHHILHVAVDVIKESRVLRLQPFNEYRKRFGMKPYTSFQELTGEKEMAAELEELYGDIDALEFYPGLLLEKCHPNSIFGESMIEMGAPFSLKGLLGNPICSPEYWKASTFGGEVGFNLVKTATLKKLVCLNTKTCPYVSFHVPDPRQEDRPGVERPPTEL

C/C(=C\CC/C(C)=C/CC[C@]1(C)CCc2c(C)c(O)c(C)c(C)c2O1)CCC=C(CO)CO [Compound 27a, α-amplexichromanol]
LDH release from monocytes at higher concentrations (monocytes): induced a rapid release of lactate dehydrogenase
TSLP expression ([1]; cytokine cocktail 2 days): did not influence TSLP expression
Epidermal disorganization induced by cytokine treatment ([1]; cytokine cocktail 4 days): attenuated the epidermal disorganization
IL-8 levels ([1]; cytokine cocktail 4 days): reduced IL-8 levels
Skin barrier functions (TEWL, Lucifer yellow) ([1]; cytokine cocktail 4 days): substantially improved skin barrier functions
pH at the RHE surface ([1]; cytokine cocktail 4 days): decreased even below the basal level
COX-1 inhibition (isolated ovine enzyme) (ovine COX-1): not substantially inhibited
Time course of systemic concentrations in plasma and lung [2]: peaked at the days after administration (days 1 and 8) and then rapidly declined
12-LOX inhibition (12-LOX): not substantially inhibited
Intracellular accumulation in PMNL (PMNL): strongly accumulates in PMNL
